Patent US5491229A, “Rapamycin derivative” (SmithKline Beecham PLC, priority 1991, dated 1996)
pIC50: −log10 of the molar value.

How the values were obtained:
[1] = test system: Spleen cells from BDF1 female mice; test: Mitogenesis Assay for Immunosuppressive Activity (concanavalin A-stimulated spleen cells, 3H-thymidine); type: cell-based; settings: Concanavalin A (5 μg/ml), 72 hours
Protocol: Spleen cells from BDF1 female mice were established in RPMI with 10% fetal calf serum at 5×10^6 /ml. One hundred […] aliquots of this suspension (5×10^5 cells) were dispensed into 96-well round-bottomed microtiter plates (Linbro, Flow Laboratories). Concanavalin A (5 μg/ml) was added as the mitogenic stimulus, and the final volume in the microtiter wells was adjusted to 200 μL with RPMI. Cell cultures were incubated for 72 hours at 37 degrees C. in a 5% CO2 atmosphere and pulsed with 0.5μ Ci ^3 H-thymidine (specific activity […]) for the last 18 hour culture. The cells were harvested on an automated multiple sample harvester and cell-associated radioactivity counted in a Beckman liquid scintillation counter. The results are expressed as the mean values derived from quadruplicate measurements. Cell viability was determined by trypan blue exclusion after 72 hours of incubation. Compounds to be tested were added to the microtiter plates at the appropriate dilutions prior to the addition of cells.

Saccharomyces cerevisiae = test: Assay for Antifungal Activity (yeast agar well zone of inhibition); type: cell-based; settings: 48 hours
Protocol: Yeast organisms (Saccharomyces cerevisiae) in logarithmic growth were plated on complete agar medium (YPD). The compound was dissolved in an appropriate aqueous or organic solvent and placed in wells punched in the agar. Plates were incubated for 48 hours and zones of inhibition were measured.
IC12^(nM) refers to the concentration of drug in the antifungal assay which produces a 12 mm zone of inhibition.

pIC50 ([1]; Mus musculus, 37 degrees C., 3H-thymidine): 7.82
Structure (SMILES): CO[C@H]1C[C@@H]2CC[C@@H](C)C(O)(CC(=O)N3CCCC[C@H]3C(=O)O[C@H]([C@H](C)C[C@@H]3CC[C@@H](O)[C@H](OC)C3)CC(=O)[C@H](C)/C=C(\C)[C@@H](O)[C@@H](OC)C(=O)[C@H](C)C[C@H](C)/C=C/C=C/C=C/1C)O2 [14-methylene rapamycin]
immunosuppressive / immunomodulatory activity (in words) [1]: has both antifungal and immunomodulatory activity
IC (12 mm zone of inhibition) (Saccharomyces cerevisiae; Saccharomyces cerevisiae on YPD agar, read-out: Yeast IC12 (concentration of drug in the antifungal assay which produces a 12 mm zone of inhibition)): 0.013 µM
antifungal activity (in words) (Saccharomyces cerevisiae; Saccharomyces cerevisiae): has both antifungal and immunomodulatory activity
